Results as given in patent US5494921A, “Fibrinogen receptor antagonists” (Merck & Co., Inc., priority 1994, dated 1996).
pIC50: −log10 of the molar value.

system: gel-filtered human platelets; experiment: Inhibition of ADP-stimulated platelet aggregation (IC50 Plaggin); assay type: cell-based; conditions: ADP-initiated (10 mM ADP) aggregation of gel-filtered human platelets, fibrinogen 100 ug/ml, Ca2+ 1 mM, 37° C.
Description: Platelet aggregation is measured at 37° C. in a Chronolog aggregometer. The reaction mixture contains gel-filtered human platelets (2×10^8 per ml), fibrinogen (100 micrograms per ml (ug/ml)), Ca^2 +(1 mM), and the compound to be tested. The aggregation is initiated by adding […] ADP 1 minute after the other components are added. The reaction is then allowed to proceed for at least 2 minutes. The extent of inhibition of aggregation is expressed as the percentage of the rate of aggregation observed in the absence of inhibitor. The IC50 is the dose of a particular compound inhibiting aggregation by 50% relative to a control lacking the compound.
In addition to the following preparative procedures, several examples of in vitro bioactivity of compounds within the scope of the present invention are indicated. To illustrate, one test which is used to evaluate fibrinogen receptor antagonist activity is based on evaluation of inhibition of ADP-stimulated platelets. Aggregation requires that fibrinogen bind to and occupy the platelet fibrinogen receptor site. Inhibitors of fibrinogen binding inhibit aggregation. In the ADP-stimulated platelet aggregation assay used to determine inhibition associated with the compounds claimed in the instant invention, human platelets are isolated from fresh blood, collected into acid citrate/dextrose o by differential centrifugation followed by gel filtration on Sepharose 2B in divalent ion-free Tyrode's buffer (pH 7.4) containing 2% bovine serum albumin.

| Compound | pIC50 |
| --- | --- |
| C[C@H](CC(=O)O)NC(=O)[C@@H]1C[C@H]1C(=O)NCCC1CCNCC1 | 4.77 |
| CCCCS(=O)(=O)N[C@@H](CCNC(=O)[C@H]1C[C@@H]1C(=O)NCCC1CCNCC1)C(=O)O | 4.77 |

Second part, the compound after the results:

| pIC50 | Compound |
| --- | --- |
| 6.24 | CCCCS(=O)(=O)N[C@@H](CNC(=O)[C@H]1C[C@@H]1C(=O)NCCC1CCNCC1)C(=O)O |
| 7.11 | CCCCS(=O)(=O)N[C@@H](CNC(=O)[C@@H]1C[C@H]1C(=O)NCCC1CCNCC1)C(=O)O |
| 5.46 | CCCCS(=O)(=O)N[C@@H](CCNC(=O)[C@@H]1C[C@H]1C(=O)NCCC1CCNCC1)C(=O)O |
| 6.68 | CCCCS(=O)(=O)N[C@@H](CNC(=O)C1CC1C(=O)NCCC1CCNCC1)C(=O)O (some centres unmarked) |
| 6.85 | CCCCS(=O)(=O)N[C@@H](CNC(=O)C1CC1CC(=O)NCCC1CCNCC1)C(=O)O (some centres unmarked) |

system: gp IIb/IIIa complex; experiment: not given; conditions: cited from earlier work

| Compound | affinity for the gp IIb/IIIa complex |
| --- | --- |
| Echistatin | high affinity |
